Here are results for four compounds from patent publication US7098195B2, “Fluorinated glucosamine analogs useful for modulating post-translational glycosylations on cells” (Health Research, Inc., priority 2001, dated 2006).

Read-outs that look alike come from different tables or passages of the source.

The subject of experiment [1] is P-selectin ligand activity of murine Th1 cells. As to the kind of experiment: Flow chamber analysis of P-selectin binding on murine Th1 cells. It counts as cell-based, mouse. The text has this:
(§1) CD4+ splenocytes were isolated from C57BL-6 mice by anti-murine CD4 L3T4 magnetic bead technology (Miltenyi Biotec) according to manufacturer's protocol. […] Culturing murine T helper cells in the presence of murine IL-12 and anti-murine IL-4 produces selectin binding Th1 cells by up-regulating FucTVII (69, 70) and core 2 enzyme (43–45, 71, 72), both critical for selectin ligand synthesis (i.e. decoration of PSGL-1 (67, 68)), and prevents the production of non-selectin binding Th2 cells (67–72). Th1 cells were also generated from mice deficient in α1,3 fucosyltransferase, FucTVII, and served as negative controls (33, 38, 40). Cells were harvested and re-plated at 2×10^6cells/ml on non-Ab coated plastic with murine IL-2 (20 ng/ml) in the presence or absence of murine IL-12 (10 ng/ml) and anti-murine IL-4 moAb 11B11 (10 μg/ml) for 48 h. […] Glycosylation inhibitors were added to cultures on day 6.5 for 30 hr, after first treating cells with neuraminidase (0.1 U/ml for 1 hr at 37° C.) to remove all cell surface terminal sialic acid resides and E and P-selectin ligand activity. Since selectin ligands are dependent on terminal sialic acid (α2,3 N-acetylneuraminic acid) for activity, this approach allowed for analysis of de novo synthesized selectin ligands in the presence of 0.05 mM 4-F-GlcNAc, N-glycan inhibitors, 0.23 mM swainsonine and 0.02 mM tunicamycin, and 1 mM GlcNAc (negative control).

Experiment [2] relates to α-mannose (ConA staining). It counts as cell-based, human. The settings on record: compared with PBS or GlcNAc treatments. The method, then:
For lectin blotting, cell lysates (25 μg/spot) were spotted onto methanol-permeabilized PVDF membrane and blocked in FBS for 1 h at RT. Blots were then probed with AP-Canavalia ensiformis agglutinin (ConA) (2.0 μg/ml PBS; specificity: α-mannose), AP-Triticum vulgaris (Wheat germ) agglutinin (WGA) (0.5 μg/ml PBS; specificity: terminal GlcNAc or GlcNAcβ1,4GlcNAc) or AP-Lycopersicon esculentum (tomato lectin) agglutinin (LEA) (1.0 μg/ml PBS; specificity: (Galβ1,4GlcNAc)n) for 1 h at RT (All lectins from EY Labs., Inc., San Mateo, Calif.). After washing 3× in PBS/0.1% Tween-20 and 1× in PBS (10 min each), blots were developed with Western Blue®.
To analyze and identify the glycan modifications on CLA^+ T-cells treated with 4-F-GlcNAc, lectin blotting experiments were performed with ConA (Specificity: α-mannose), WGA (Specificity: terminal GlcNAc or GlcNAcβ1,4GlcNAc) and LEA (Specificity: {Galβ1,4GlcNAc}n).

Experiment [3] concerns E-selectin ligand activity of murine Th1 cells. As to the kind of experiment: Flow chamber analysis of E-selectin binding on murine Th1 cells. It counts as cell-based, mouse.
Text: as §1

The test system of experiment [4] is E-selectin ligand activity of CLA+ T-lymphocytes. As to the kind of experiment: Parallel-plate flow chamber, CLA+ T-cell tethering and rolling on E-selectin chimera. It counts as cell-based, human. The method, then: (§2) To analyze the affects of 4-F-GlcNAc on the function of CLA on human T-cells, we examined the ability of 4-F-GlcNAc-treated (0.05, 0.1, 0.5 mM for 30 hrs) CLA-+ T-cells cultures to engage with immobilized E- and P-selectin chimera in the parallel-plate flow chamber. As described for flow cytometric analyses (Example 13), cells were first pretreated with neuraminidase to remove terminal sialic acid residues required for HECA-452 reactivity and for E- and P-selectin ligand activity of CLA. This approach allowed for the assessment on de novo synthesized CLA molecules.
(§3) Tethering and rolling of human T-cells on recombinant human E- and P-selectin-Ig chimera (provided by Dr. Robert Fuhlbrigge, Harvard Medical School) and human L-selectin-Ig (gift from Dr. Ray Camphausen, Wyeth/Genetics Institute, Inc., Cambridge, Mass.) were analyzed in the parallel-plate flow chamber under physiologic shear stress conditions (3). To prepare E- and P-selectin-Ig chimera spots, protein A (300 μg/15 μl 0.1M NaHCO3) was adsorbed to Ten-twenty-nine™ Petri dishes for 2 h at 37° C. Human serum albumin ([…] PBS) then added and incubated for 2 h at 37° C. to block non-specific binding sites. E-selectin-Ig (50 ng/50 μl PBS) or P-selectin-Ig (50 ng/50 μl PBS) solutions was pipetted directly over the pre-existing protein A spots for 18 h at 4° C. To prepare L-selectin-Ig spots, L-selectin-Ig (300 ng/15 μl PBS) or isotype control human IgG (300 ng/15 μl) were adsorbed directly to plastic (non-protein A-coated) for 18 h at 4° C. and blocked in 100% FBS for 2 h at 4° C.
(§4) CLA^+ T-cells or freshly isolated PBL were treated with neuraminidase and metabolic glycosylation inhibitors or with protease (bromelain) as described above, washed twice in HBSS, suspended at 2×10^6/ml in HBSS/10 mM HEPES/2 mM CaCl2 (H/H/Ca^++) and infused into the chamber over selectin chimeras. Protease treatment was performed to control for residual E-selectin activity not attributable to the expression of CLA on a protein scaffold. Cell tethering was permitted at 0.6 dynes/cm^2 for 1 min, then stepwise increments in shear stress every 15 sec were employed to a final shear stress level of 60 dynes/cm^2. The number of cells rolling/viewing field (at 100× magnification) was quantified at each level of shear stress in triplicates for a minimum of three experiments. […] Negative control experiments were performed in parallel, wherein cell binding was examined in H/H adhesion assay medium containing 5 mM EDTA as well as assaying cell binding to human IgG isotype control.
(§5) Utilizing the parallel-plate flow chamber under physiologic shear stress conditions, E-, P- and L-selectin ligand activities of human CLA^+ T-cells treated were analyzed in an identical manner as cells prepared for Western blotting and autoradiography studies.

In experiment [5] the test system is P-selectin ligand activity of CLA+ T-lymphocytes. As to the kind of experiment: Parallel-plate flow chamber, CLA+ T-cell tethering and rolling on P-selectin chimera. It counts as cell-based, human. The method, then: as §2, §3, §4, §5
The test system of experiment [6] is L-selectin ligand activity of human CLA+ T-cells. As to the kind of experiment: Parallel-plate flow chamber, CLA+ T-cell rolling on L-selectin chimera. Format: cell-based. On the procedure:
as §3, §4, §5

The mark [7] stands for this setting: 30 hr after neuraminidase, 0.05 mM 4-F-GlcNAc, 0.23 mM swainsonine, 0.02 mM tunicamycin, 1 mM GlcNAc.
Where [8] appears, read: 30 h following neuraminidase digestion, drug control.
The mark [9] stands for this setting: at 2.0 dynes/cm^2, tunicamycin 0.02 mM, swainsonine 0.23 mM, 4-F-GlcNAc 0.05 mM, BAG 2.0 mM, p<0.01.
[10] abbreviates: neuraminidase then 0.1 and 0.5 mM for 30 hrs.

For the compound `O[C@H]1[C@H]2[C@H](O)CCCN2C[C@H]1O` [swainsonine], the “recovery of P-selectin ligand activity of Th1 cells” value in experiment [1] is given as “no effect”. Besides, the “ConA staining of lysates” value in experiment [2] is listed as “enhanced”. The “recovery of E-selectin ligand activity of Th1 cells” value in experiment [3] is “no effect”. Also, the “rolling adhesions on E-selectin chimera” value in experiment [4] is given as “no effect”. In addition, the “rolling adhesions on P-selectin chimera” value in experiment [5] was “no effect”. Besides, the “rolling adhesions on L-selectin chimera” value in experiment [6] is “no effect”.

With tunicamycin, the “recovery of P-selectin ligand activity of Th1 cells” value in experiment [1] is “completely inhibited”. Further, the “ConA staining of lysates” value in experiment [2] is on record as “eliminated”. For the same compound, the “recovery of E-selectin ligand activity of Th1 cells” value in experiment [3] is listed as “completely inhibited”. In addition, in experiment [4], the “rolling adhesions on E-selectin chimera” value was “significant reductions”. Also, in experiment [5], the “rolling adhesions on P-selectin chimera” value is reported as “significant reductions”. Also, the “rolling adhesions on L-selectin chimera” value in experiment [6] was “significant reductions”.

Take `CC(=O)N[C@H]1C(O)O[C@H](CO)[C@@H](O)[C@@H]1O` (stereo partly shown) [GlcNAc, N-acetylglucosamine]: the “recovery of P-selectin ligand activity of Th1 cells” value in experiment [1] (setting [7]) was “no effect”. Besides, the “recovery of E-selectin ligand activity of Th1 cells” value in experiment [3] (setting [7]) is “no effect”. Also, the “recovery of E-selectin ligand activity” value in experiment [4] (setting [8]) was more than 80 % recovery. In experiment [5] (setting [8]), the “recovery of P-selectin ligand activity” value is listed as more than 80 % recovery. In addition, the “recovery of L-selectin ligand activity” value in experiment [6] (setting [8]) was more than 80 % recovery.

Turning to `CC(=O)N[C@H]1C(OC(C)=O)O[C@H](COC(C)=O)[C@@H](F)[C@@H]1OC(C)=O` (stereo partly drawn) [4-F-GlcNAc, 2-acetamido-2-deoxy-1,3,6-tri-O-acetyl-4-deoxy-4-fluoro-D-glucopyranose], in experiment [1] (setting [7]), the “recovery of P-selectin ligand activity of Th1 cells” value is “completely inhibited”. Moreover, in experiment [2], the “ConA staining of lysates” value is listed as “no effect”. For the same compound, the “recovery of E-selectin ligand activity of Th1 cells” value in experiment [3] (setting [7]) is recorded as “completely inhibited”. Also, in experiment [4], the “E-selectin ligand activity compared with protease treatment” value is given as “did not reduce E-selectin ligand activity below that of protease-treatment”. Further, the “difference in cell rolling frequency on E-selectin chimera vs PBS recovery” value in experiment [4] (0.05 mM, p<0.001) is on record as “statistically significant”. Moreover, the “rolling adhesions on E-selectin chimera” value in experiment [4] (setting [9]) is “significant reductions”. Moreover, the “CLA+ T-cell tethering and rolling mediated by E-selectin” value in experiment [4] (setting [10]) is listed as “completely abolished”. In addition, the “difference in cell rolling frequency on P-selectin chimera vs PBS recovery” value in experiment [5] (0.05 mM, p<0.001) is “statistically significant”. Besides, the “rolling adhesions on P-selectin chimera” value in experiment [5] (setting [9]) is “significant reductions”. The “CLA+ T-cell tethering and rolling mediated by P-selectin” value in experiment [5] (setting [10]) is listed as “completely abolished”. For the same compound, in experiment [6] (setting [9]), the “rolling adhesions on L-selectin chimera” value is listed as “significant reductions”.
